Test system: rice
Assay: Low temperature assay on rice seedlings
Format: in vivo
Method: According to a low temperature assay, we measured parameters including plant height, number of leaf, area of leaf, number of tiller, weight of root at low temperature to completely determine effects of the natural brassinolide analogues on the resistance to low temperature of a plant.
The natural brassinolide analogues, BR1, BR2, BR3, BR4, BR5 and BR6, used herein, were those prepared by the method of Example 1. Respectively the analogues were dissolved into 95% (V/V) ethanol solution, and then diluted with pure water to 1 mg/L, 0.1 mg/L, 0.01 mg/L, 0.001 mg/L and 0.0001 mg/L. In addition, pure water was used as a control.
After rice seeds were disinfected by using 5% sodium hypochlorite solution treatment, they were rinsed with distilled water until their pH>7, placed into a petri dish in a dark incubator, and cultured by using water at 30° C.±2° C. for 9 days. Then respectively the nine-day-old etiolated seedlings of rice were immersed in the above solutions containing different concentrations of the natural brassinolide analogues or pure water, and cultured at the temperature of 1° C., 2° C., 3° C., 4° C. and 5° C. for 24 hr. The parameters including plant height, area of leaf and weight of root after 3, 6, 9 and 12 days and number of leaf and number of tiller after 12 days were measured.

## CC(C)(O)CC[C@@H](O)[C@](C)(O)[C@H]1CC[C@@]2(O)[C@@H]3CC(=O)[C@@H]4C[C@@H](O)[C@@H](O)C[C@]4(C)[C@H]3CC[C@]12C [BR6]
0.001 mg/l, 2 °C, 6 days
  Area of leaf: 11.8 cm^2
  Height: 7.1 cm
  Weight of root: 3.0 g
0.001 mg/l, 2 °C, 9 days
  Area of leaf: 12.7 cm^2
  Height: 7.2 cm
  Weight of root: 3.2 g
0.001 mg/l, 2 °C, 12 days
  Area of leaf: 13.1 cm^2
  Height: 7.3 cm
  Number of leaf: 3
  Number of tiller: 3
  Weight of root: 3.9 g
0.001 mg/l, 3 °C, 3 days
  Area of leaf: 10.4 cm^2
  Height: 7 cm
  Weight of root: 2.5 g
0.001 mg/l, 3 °C, 6 days
  Area of leaf: 12 cm^2
  Height: 7.1 cm
  Weight of root: 2.6 g
0.001 mg/l, 3 °C, 9 days
  Area of leaf: 12.6 cm^2
  Height: 7.4 cm
  Weight of root: 2.9 g
0.001 mg/l, 3 °C, 12 days
  Area of leaf: 13.2 cm^2
  Height: 7.4 cm
  Number of leaf: 3
  Number of tiller: 2
  Weight of root: 2.9 g
0.001 mg/l, 4 °C, 3 days
  Area of leaf: 10.6 cm^2
  Height: 7.1 cm
  Weight of root: 2.5 g
0.001 mg/l, 4 °C, 6 days
  Area of leaf: 12.4 cm^2
  Height: 7.3 cm
  Weight of root: 2.6 g
0.001 mg/l, 4 °C, 9 days
  Area of leaf: 13.1 cm^2
  Height: 7.5 cm
  Weight of root: 2.9 g
0.001 mg/l, 4 °C, 12 days
  Area of leaf: 13.5 cm^2
  Height: 7.7 cm
  Number of leaf: 3
  Number of tiller: 2
  Weight of root: 2.9 g
0.001 mg/l, 5 °C, 3 days
  Area of leaf: 10.7 cm^2
  Height: 7.5 cm
  Weight of root: 2.8 g
0.001 mg/l, 5 °C, 6 days
  Area of leaf: 14.6 cm^2
  Height: 7.8 cm
  Weight of root: 2.7 g
0.001 mg/l, 5 °C, 9 days
  Area of leaf: 16 cm^2
  Height: 7.9 cm
  Weight of root: 3.0 g
0.001 mg/l, 5 °C, 12 days
  Area of leaf: 17 cm^2
  Height: 8.2 cm
  Number of leaf: 3
  Number of tiller: 3
  Weight of root: 3.7 g
0.01 mg/l, 1 °C, 3 days
  Area of leaf: 10 cm^2
  Height: 7.0 cm
  Weight of root: 2.8 g
0.01 mg/l, 1 °C, 6 days
  Area of leaf: 11.9 cm^2
  Height: 7.2 cm
  Weight of root: 3.0 g
0.01 mg/l, 1 °C, 9 days
  Area of leaf: 12.9 cm^2
  Height: 7.3 cm
  Weight of root: 3.4 g
0.01 mg/l, 1 °C, 12 days
  Area of leaf: 13.6 cm^2
  Height: 7.4 cm
  Number of leaf: 3
  Number of tiller: 3
  Weight of root: 3.9 g
0.01 mg/l, 2 °C, 3 days
  Area of leaf: 10.6 cm^2
  Height: 7.0 cm
  Weight of root: 2.8 g
0.01 mg/l, 2 °C, 6 days
  Area of leaf: 11.8 cm^2
  Height: 7.2 cm
  Weight of root: 3.0 g
0.01 mg/l, 2 °C, 9 days
  Area of leaf: 12.8 cm^2
  Height: 7.3 cm
  Weight of root: 3.1 g
0.01 mg/l, 2 °C, 12 days
  Area of leaf: 13.4 cm^2
  Height: 7.5 cm
  Number of leaf: 3
  Number of tiller: 3
  Weight of root: 3.2 g
0.01 mg/l, 3 °C, 3 days
  Area of leaf: 10.4 cm^2
  Height: 7 cm
  Weight of root: 2.5 g
0.01 mg/l, 3 °C, 6 days
  Area of leaf: 12 cm^2
  Height: 7.2 cm
  Weight of root: 2.6 g
0.01 mg/l, 3 °C, 9 days
  Area of leaf: 12.6 cm^2

— patent publication US9326506B2, “Preparation method, agricultural composition and applications of natural brassinolide analogs” (CHENGDU NEWSUN CROPSCIENCE CO., LTD, priority 2012, dated 2016)
